Measurements as given in patent US11051515B2, “3-acyl-benzamides and their use as herbicides” (Bayer Aktiengesellschaft, priority 2017, dated 2021).

Legend:
STEME [1] = assay: Pre-emergence action against STEME; assay type: in vivo, Stellaria media; conditions: for Pre-emergence action against STEME: Dosage 320 g/ha
Outline: (§1)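 Seeds sown in sandy loam in wood-fiber pots and covered with soil. Greenhouse growth; visual damage scored after 3 weeks versus untreated controls (100% = dead, 0% = like control).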

AVEFA [2] = assay: Post-emergence action against AVEFA; assay type: in vivo, Avena fatua; conditions: post-emergence, dosage 80 g/ha, visual assessment about 3 weeks after treatment vs untreated controls
Method: (§2) Seeds of monocotyledonous and dicotyledonous weed and crop plants are laid out in sandy loam soil in wood-fiber pots, covered with soil and cultivated in a greenhouse under good growth conditions. 2 to 3 weeks after sowing, the test plants are treated at the one-leaf stage. The compounds of the invention, formulated in the form of wettable powders (WP) or as emulsion concentrates (EC), are then sprayed onto the green parts of the plants in the form of an aqueous suspension or emulsion at a water application rate equating to […], with addition of 0.2% wetting agent. After the test plants have been left to stand in the greenhouse under optimal growth conditions for about 3 weeks, the action of the preparations is assessed visually in comparison to untreated controls (herbicidal action in percent (%): 100% activity=the plants have died, 0% activity=like control plants). […] At the same time, inventive compounds leave Gramineae crops such as barley, wheat, rye, millet/Sorghum, corn or rice virtually undamaged when applied post-emergence, even at high active ingredient dosages. In addition, some substances are also harmless to dicotyledonous crops such as soya, cotton, oilseed rape, sugar beet or potatoes. Some of the compounds according to the invention have high selectivity and are therefore suitable for controlling unwanted vegetation in agricultural crops by the post-emergence method. The data of Tables B18 to B34 below illustrate, in an exemplary manner, the […] herbicidal action of the compounds according to the invention, the herbicidal activity being stated in percent.

ABUTH [3] = assay: Pre-emergence action against ABUTH; assay type: in vivo, Abutilon theophrasti; conditions: pre-emergence, dosage 320 g/ha, scored visually after 3 weeks vs untreated controls
Outline: as §1

MATIN [4] = assay: Pre-emergence action against MATIN; assay type: in vivo, Matricaria inodora; conditions: for Pre-emergence action against MATIN: Dosage 320 g/ha
Outline: as §1

POLCO [5] = assay: Pre-emergence action against POLCO; assay type: in vivo, Polygonum convolvulus; conditions: Dosage 320 g/ha, pre-emergence
Outline: as §1

VERPE [6] = assay: Post-emergence action against VERPE; assay type: in vivo, Veronica persica; conditions: dosage 80 g/ha
Outline: (§3)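 Post-emergence foliar spray on greenhouse plants at the one-leaf stage, using wettable-powder or emulsion-concentrate formulations in water (600 to […], plus 0.2% wetting agent). Damage scored by eye roughly 3 weeks later against untreated plants: 0% = like control, 100% = dead.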

ABUTH [7] = assay: Post-emergence action against ABUTH; assay type: in vivo, Abutilon theophrasti; conditions: for Post-emergence action against ABUTH (herbicidal action in percent): dosage 80 g/ha, visual assessment about 3 weeks after treatment vs untreated controls
Outline: as §3

AMARE [8] = assay: Pre-emergence action against AMARE; assay type: in vivo, Amaranthus retroflexus; conditions: pre-emergence, dosage 320 g/ha, scored visually after 3 weeks vs untreated controls
Outline: as §1

VIOTR [9] = assay: Post-emergence action against VIOTR; assay type: in vivo, Viola tricolor; conditions: for Post-emergence action against VIOTR: dosage 80 g/ha
Outline: as §3

ECHCG [10] = assay: Pre-emergence action against ECHCG; assay type: in vivo, Echinochloa crus-galli; conditions: pre-emergence, dosage 320 g/ha, scored visually after 3 weeks vs untreated controls
Outline: as §1

MATIN [11] = assay: Post-emergence action against MATIN; assay type: in vivo, Matricaria inodora; conditions: for Post-emergence action against MATIN (herbicidal action in percent): dosage 80 g/ha, visual assessment about 3 weeks after treatment vs untreated controls
Outline: as §3

AMARE [12] = assay: Post-emergence action against AMARE; assay type: in vivo, Amaranthus retroflexus; conditions: for Post-emergence action against AMARE (herbicidal action in percent): dosage 80 g/ha, visual assessment about 3 weeks after treatment vs untreated controls
Outline: as §3

SETVI [13] = assay: Post-emergence action against SETVI; assay type: in vivo, Setaria viridis; conditions: for Post-emergence action against SETVI (herbicidal action in percent): dosage 80 g/ha, visual assessment about 3 weeks after treatment vs untreated controls
Outline: as §3

ECHCG [14] = assay: Post-emergence action against ECHCG; assay type: in vivo, Echinochloa crus-galli; conditions: post-emergence, dosage 80 g/ha, visual assessment about 3 weeks after treatment vs untreated controls
Outline: as §3

SETVI [15] = assay: Pre-emergence action against SETVI; assay type: in vivo, Setaria viridis; conditions: for SETVI (Table B8, pre-emergence herbicidal activity): dosage 320 g/ha, scored visually after 3 weeks vs untreated controls
Outline: as §1

PHBPU [16] = assay: Post-emergence action against PHBPU; assay type: in vivo, Pharbitis purpurea; conditions: post-emergence, dosage 80 g/ha
Outline: as §3

AVEFA [17] = assay: Pre-emergence action against AVEFA; assay type: in vivo, Avena fatua; conditions: dosage 320 g/ha, scored visually after 3 weeks vs untreated controls
Outline: as §1

CYPES [18] = assay: Pre-emergence action against CYPES; assay type: in vivo, Cyperus esculentus; conditions: for Pre-emergence action against CYPES (herbicidal activity): dosage 320 g/ha, scored visually after 3 weeks vs untreated controls; for Herbicidal efficacy against CYPES: 80 g of a.i./ha
Outline: as §1

POLCO [19] = assay: Post-emergence action against POLCO; assay type: in vivo, Polygonum convolvulus; conditions: post-emergence, dosage 80 g/ha
Method: as §2

VIOTR [20] = assay: Pre-emergence action against VIOTR; assay type: in vivo, Viola tricolor; conditions: for Pre-emergence action against VIOTR: Dosage 320 g/ha
Outline: as §1

VERPE [21] = assay: Pre-emergence action against VERPE; assay type: in vivo, Veronica persica; conditions: Dosage 320 g/ha, pre-emergence
Outline: as §1

STEME [22] = assay: Post-emergence action against STEME; assay type: in vivo, Stellaria media; conditions: for Post-emergence action against STEME: dosage 80 g/ha
Outline: as §3

CYPES [23] = assay: Post-emergence action against CYPES; assay type: in vivo, Cyperus esculentus; conditions: post-emergence, dosage 80 g/ha, visual assessment about 3 weeks after treatment vs untreated controls
Outline: as §3

PHBPU [24] = assay: Pre-emergence action against PHBPU; assay type: in vivo, Pharbitis purpurea; conditions: Dosage 320 g/ha, pre-emergence
Outline: as §1

ALOMY = assay: Pre-emergence action against ALOMY; assay type: in vivo, Alopecurus myosuroides; conditions: for Pre-emergence action against ALOMY (herbicidal activity in percent): dosage 320 g/ha, scored visually after 3 weeks vs untreated controls, 100% = plants have died, 0% = like control plants
Outline: as §1

[25] = Table V10, pre-emergence, 80 g of a.i./ha
[26] = Table V19, post-emergence, 5 g of a.i./ha
[27] = Table V21, post-emergence, 5 g of a.i./ha
[28] = Table V17, post-emergence, 5 g of a.i./ha

| SMILES | Pre-emergence action against STEME (STEME [1]) [%] | Post-emergence action against AVEFA (herbicidal action in percent) (AVEFA [2]) [%] | Pre-emergence action against ABUTH (herbicidal activity) (ABUTH [3]) [%] | Pre-emergence action against MATIN (MATIN [4]) [%] | Pre-emergence action against POLCO (POLCO [5]) [%] | Post-emergence action against VERPE (VERPE [6]) | Post-emergence action against ABUTH (herbicidal action in percent) (ABUTH [7]) [%] | Pre-emergence action against AMARE (herbicidal activity) (AMARE [8]) [%] | Post-emergence action against VIOTR (VIOTR [9]) | Pre-emergence action against ECHCG (herbicidal activity) (ECHCG [10]) [%] | Post-emergence action against MATIN (herbicidal action in percent) (MATIN [11]) [%] | Post-emergence action against AMARE (herbicidal action in percent) (AMARE [12]) [%] | Post-emergence action against SETVI (herbicidal action in percent) (SETVI [13]) [%] | Post-emergence action against ECHCG (herbicidal action in percent) (ECHCG [14]) [%] | SETVI (Table B8, pre-emergence herbicidal activity) (SETVI [15]) [%] | Post-emergence action against PHBPU (PHBPU [16]) | Pre-emergence action against AVEFA (herbicidal activity) (AVEFA [17]) [%] | Pre-emergence action against CYPES (herbicidal activity) (CYPES [18]) [%] | Pre-emergence action against VIOTR (VIOTR [20]) [%] | Post-emergence action against STEME (STEME [22]) | further results |
| --- | --- | --- | --- | --- | --- | --- | --- | --- | --- | --- | --- | --- | --- | --- | --- | --- | --- | --- | --- | --- | --- |
| CCCn1nnnc1NC(=O)c1ccc(SC)c(C(=O)C2CC2)c1Cl [3-123] | 90 | 100 | 100 | 100 | 80 | 100 | 80 | 100 | 100 | 90 | 100 | 100 | 90 | 100 | 100 | 90 | 100 | 80 | 100 | 100 | Post-emergence action against POLCO (POLCO [19]): 90; Pre-emergence action against VERPE (VERPE [21]): 100% |
| CCCn1nnnc1NC(=O)c1ccc(S(C)(=O)=O)c(C(C)=O)c1C [3-7] | 90 | 100 | 100 | 100 | 90 | 100 | 100 | 100 | 100 | 100 | 100 | 100 | 100 | 100 | 100 | 90 | 90 | 100 | 100 | 100 | Post-emergence action against CYPES (herbicidal action in percent) (CYPES [23]): 80%; Pre-emergence action against PHBPU (PHBPU [24]): 90%; Post-emergence action against POLCO (POLCO [19]): 80; Pre-emergence action against VERPE (VERPE [21]): 100%; Pre-emergence action against ALOMY (herbicidal activity in percent) (ALOMY): 80% |
| CCCn1nnnc1NC(=O)c1ccc(S(C)(=O)=O)c(C(=O)C2CC2)c1C [3-9] |  | 100 | 100 | 90 | 80 | 100 | 80 | 100 | 100 | 100 | 100 | 100 | 100 | 100 | 100 | 100 | 90 |  | 100 | 100 | Post-emergence action against CYPES (herbicidal action in percent) (CYPES [23]): 80% |
| CCn1nnnc1NC(=O)c1ccc(S(C)(=O)=O)c(C(C)=O)c1Cl [2-127] | 90 | 90 | 100 | 100 |  | 100 | 100 | 100 | 100 | 100 | 90 | 100 | 90 | 100 | 90 | 100 | 90 | 90 | 100 | 100 | Post-emergence action against CYPES (herbicidal action in percent) (CYPES [23]): 90%; Pre-emergence action against PHBPU (PHBPU [24]): 90%; Pre-emergence action against VERPE (VERPE [21]): 100% |
| CCn1nnnc1NC(=O)c1ccc(S(C)(=O)=O)c(C(C)=O)c1C [2-7] | 90 | 100 | 100 | 100 | 90 | 100 | 100 | 100 | 100 | 100 | 100 | 100 | 100 | 100 | 100 | 80 |  | 100 | 100 | 100 | Herbicidal efficacy against STEME (STEME [1]; [25]): 90; Herbicidal efficacy against MATIN (MATIN [4]; [25]): 100; ABUTH (ABUTH [7]; [26]): 100; Herbicidal efficacy against ABUTH (ABUTH [7]; [27]): 100; Herbicidal efficacy against VIOTR (VIOTR [9]; [28]): 100; VIOTR (VIOTR [9]; [26]): 100; Herbicidal efficacy against MATIN (MATIN [11]; [28]): 100; MATIN (MATIN [11]; [26]): 100; Herbicidal efficacy against AMARE (AMARE [12]; [27]): 100; SETVI (SETVI [13]; [26]): 90; Herbicidal efficacy against SETVI (SETVI [15]; [25]): 80; Herbicidal efficacy against CYPES (CYPES [18]; Table V10, pre-emergence): 90; Herbicidal efficacy against CYPES (CYPES [18]; Table V11, pre-emergence): 90; Post-emergence action against POLCO (POLCO [19]): 100; Herbicidal efficacy against VIOTR (VIOTR [20]; Table V12, pre-emergence, 20 g of a.i./ha): 90; Pre-emergence action against VERPE (VERPE [21]): 100%; Herbicidal efficacy against ALOMY (ALOMY; [25]): 70; Pre-emergence action against ALOMY (herbicidal activity in percent) (ALOMY): 80%; STEME (STEME [22]; [26]): 100; Herbicidal efficacy against STEME (STEME [22]; [27]): 100 |
